Consider 21 molecules from ChEMBL document CHEMBL4251546, “Discovery and hit-to-lead evaluation of piperazine amides as selective, state-dependent NaV1.7 inhibitors” (Medchemcomm, 2017).

Values after ≈ are worked out from the molar mass of the structure shown.

A short description of data set [1]: Cmax in mouse at 100 mg/kg, po. The arrangement: dose 100 mg/kg, route oral. It counts as ADME, organism-based. The settings on record: in vivo.
A short description of data set [2]: Thermodynamic solubility of the compound in PBS at pH 7.4. It is filed as physicochemical. Conditions: read-out: Therm_solubility.
The next data set concerns Mus musculus. The data set is described as follows: Unbound Cmax in mouse at 100 mg/kg, po. The settings on record: in vivo. It counts as ADME, organism-based.
The nature of data set [3]: Plasma concentration in C57Bl/6 mouse histamine dichloride-induced pruritus model at 300 mg/kg, po. It is filed as ADME, organism-based. The settings on record: in vivo.
For the next data set, the system named is MDR1 (P-gp). The data set is described as follows: Apparent permeability across MDCK cells transfected with MDR1. The settings on record: dog. It counts as ADME, cell-based, Canis lupus familiaris.

The Cmax is the maximum level reached in the sampled fluid or tissue. As usually defined, the Papp is a coefficient for how fast a substance crosses the barrier. The molecule `O=C(NCc1ccccc1)[C@@H](c1ccccc1)N1CCN(C(=O)c2cc(F)ccc2Cl)CC1` returned a Cmax in data set [1] of 4.3 µM. Besides, in data set [2], the solubility thermodynamic stood at 96 µM (≈ 44.7 µg/mL). In the data set on Mus musculus, this molecule showed a fCmax of 0.16 µM. For the same molecule, in data set [3], the concentration was 22 µM. Also, the Papp with MDR1 (P-gp) is 36 ×10⁻⁶ cm/s. Take `N#Cc1ccc([C@H](C(=O)NCC(F)(F)C2CC2)N2CCN(C(=O)c3cc(F)ccc3Cl)CC2)cc1`: the concentration in data set [1] peaked (Cmax) at 29.8 µM. Also, the solubility thermodynamic in data set [2] is 154 µM (≈ 77.8 µg/mL). Further, in the data set on Mus musculus, the fCmax was 3.28 µM. In the case of `O=C(Nc1ccc(OCC(F)(F)F)nc1)[C@@H](c1ccccc1)N1CCN(C(=O)c2cc(F)cc(F)c2)CC1`, in data set [2], the solubility thermodynamic is 19 µM (≈ 10.2 µg/mL). In the case of `N#Cc1ccc([C@H](C(=O)NCc2ccccc2)N2CCN(C(=O)c3cc(F)cc(F)c3)CC2)cc1`, the solubility thermodynamic in data set [2] was found to be 74 µM (≈ 35.1 µg/mL).

For `O=C(NCc1ccccc1)[C@@H](c1ccccc1)N1CC2CC(C1)N2C(=O)c1cc(F)ccc1Cl`, in data set [2], the solubility thermodynamic was determined as 83 µM (≈ 39.7 µg/mL).

Consider `O=C(NCc1ccccc1)[C@@H](c1ccccc1)N1CCN(C(=O)c2cc(F)cc(F)c2)CC1`, for which, in data set [2], the solubility thermodynamic was determined as 137 µM (≈ 61.6 µg/mL).

Regarding `CN(Cc1ccccc1)C(=O)[C@@H](c1ccccc1)N1CCN(C(=O)c2cc(F)cc(F)c2)CC1`, the solubility thermodynamic in data set [2] is 220 µM (≈ 102 µg/mL). Regarding `O=C(NCC1CC1)[C@@H](c1ccccc1)N1CCN(C(=O)c2cc(F)cc(F)c2)CC1`, the solubility thermodynamic in data set [2] stood at 472 µM (≈ 195 µg/mL). For `N#Cc1ccc([C@H](C(=O)NCC2CC2)N2CC3CCC(C2)N3C(=O)c2cc(F)ccc2F)cc1`, in data set [2], the solubility thermodynamic stood at 326 µM (≈ 151 µg/mL). On the same count and under the same terms, then `N#Cc1cc(OC(F)(F)F)cc(C(=O)N2CCN([C@@H](C(=O)NCc3ccccc3)c3ccccc3)CC2)c1`, with 44 µM (≈ 23 µg/mL). Still for that read-out and setting: the figure for `N#Cc1ccc([C@H](C(=O)Nc2ccc(OCC(F)(F)F)nc2)N2CCN(C(=O)c3cc(F)cc(F)c3)CC2)cc1` is 15 µM (≈ 8.39 µg/mL). Same read-out and setting: the figure for `COc1cc([C@H](C(=O)NCc2ccccc2)N2CCN(C(=O)c3cc(F)cc(F)c3)CC2)ccc1C#N` is 30 µM (≈ 15.1 µg/mL). `O=C(NCc1ccccc1)[C@@H](c1ccccc1)N1CCN(Cc2ccccc2)CC1`: in data set [2], the solubility thermodynamic came to 19 µM (≈ 7.59 µg/mL). The Papp in the data set with MDR1 (P-gp) turned out to be 24 ×10⁻⁶ cm/s. Take `N#Cc1cc(F)cc(C(=O)N2CCN([C@@H](C(=O)NCC(F)(F)C3CC3)c3ccccc3)CC2)c1`: in data set [1], the Cmax was 12.8 µM. In addition, in data set [2], the solubility thermodynamic turned out to be 405 µM (≈ 191 µg/mL). Moreover, the fCmax with Mus musculus worked out at 1.66 µM. In the case of `O=C(NCc1ccccc1)[C@@H](c1ccccc1)N1CC2CCC(C1)N2C(=O)c1cc(F)ccc1Cl`, the solubility thermodynamic in data set [2] turned out to be 35 µM (≈ 17.2 µg/mL). In the case of `O=C(NCc1ccc(C(F)(F)F)nc1)[C@@H](c1ccccc1)N1CCN(C(=O)c2cc(F)cc(F)c2)CC1`, the solubility thermodynamic in data set [2] is 225 µM (≈ 117 µg/mL). Same read-out and setting: the figure for `O=C(NCc1ccccc1)[C@@H](c1ccccc1)N1CCN(C(=O)c2cc(F)cnc2Cl)CC1` is 454 µM (≈ 212 µg/mL); for `N#Cc1ccc([C@H](C(=O)NCC2CC2)N2CC3CCC(C2)N3C(=O)c2cc(F)cc(F)c2)cc1` it is 322 µM (≈ 150 µg/mL); for `O=C(NCC(F)(F)C1CC1)[C@@H](c1ccccc1)N1CCN(C(=O)c2cc(F)cc(F)c2)CC1` it is 346 µM (≈ 160 µg/mL). For `N#Cc1cc(F)cc(C(=O)N2CCN([C@@H](C(=O)NCc3ccccc3)c3ccccc3)CC2)c1`, in data set [2], the solubility thermodynamic worked out at 248 µM (≈ 113 µg/mL). Still for that read-out and setting: then `O=C(Nc1ccc(OCC(F)(F)F)nc1)[C@@H](c1ccccc1)N1CCN(C(=O)c2cc(F)cnc2Cl)CC1`, with 49 µM (≈ 27 µg/mL).
